Source: patent US11352396B2, “Antimicrobial peptides and methods of using same” (Zoetis Services LLC, priority 2017, dated 2022)

What was measured:
[1] = tested on: MSSP (Methicillin-Susceptible Staphylococcus pseudintermedius); experiment: MIC against selected strains of MSSP; type: cell-based; design: key to MIC MSSP 84658 / MIC MSSP 86000 / MIC MSSP 71990 / MIC MSSP 72036 / MIC MSSP 78032: MIC in μM; key to MIC MSSP 86001 / MIC MSSP 72191 / MIC MSSP 76986 / MIC MSSP 77378: MIC in μM (first well with no visible growth); MIC MSSP 49051 / MIC MSSP 81923 / MIC MSSP 84250 / Effect on MSSP 86000 / Effect on MSSP 72036 / Effect on MSSP 78032: unit not given beside the values; conditions: for MIC MSSP 49051: strain 49051, Table 3; for MIC MSSP 71990: strain 71990, Table 3; for MIC MSSP 72036: strain 72036, Table 3; for MIC MSSP 72191: strain 72191, Table 3; for MIC MSSP 76986: strain 76986, Table 3; for MIC MSSP 77378: strain 77378, Table 3; for MIC MSSP 78032: strain 78032, Table 3; for MIC MSSP 81923: strain 81923, Table 3; for MIC MSSP 84250: strain 84250, Table 3; for MIC MSSP 84658: strain 84658, Table 3; for MIC MSSP 86000: strain 86000, Table 3; for MIC MSSP 86001: strain 86001, Table 3
Protocol: (§1) Peptides according to SEQ ID NOs as listed in Table 1 were prepared by a commercial manufacturer (CS Bio, Menlo Park, Calif.) using solid phase synthesis. Antimicrobial activity was assessed by determining the Minimal Inhibitory Concentration (MIC) against S. aureus and E. coli. Briefly, Microbroth MICs were performed using CLSI methodology (VET01-S2). For S. aureus and E. coli ATCC strains, TSA with 5% lysed horse blood agar was used for overnight culturing at 37° C. ambient air. A 0.5 mM stock for each peptide was made with cell culture water, 0.01% acetic acid and serially diluted and spotted (10 μL) in a 96-well plate for in assay dose titration concentration of 50 μM to 0.05 μM. 0.5 McFarland Standard of each strain was diluted 1:250 in Mueller-Hinton Broth (MHB). 90 μL of culture suspension was then added upon drug in the 96-well plate for overnight incubation for 18-20 hours. The MIC was determined visually at the first well of no visible growth at the corresponding concentration.
(§2) Antimicrobial activity of the peptides listed in Table 2 against different strains of MSSP (Methicillin-Susceptible Staphylococcus pseudintermedius) and MRSP (Methicillin-Resistant Staphylococcus pseudintermedius) was further assessed. The results are in Tables 3 and 4, respectively.

[2] = tested on: MRSP (Methicillin-Resistant Staphylococcus pseudintermedius); experiment: MIC against selected strains of MRSP; type: cell-based; design: key to MIC MRSP 88493 / MIC MRSP 72035 / MIC MRSP 81926: MIC in μM; key to MIC MRSP 71994 / MIC MRSP 79882 / MIC MRSP 80729 / MIC MRSP 86002: MIC in μM (first well with no visible growth); key to MIC MRSP 72192 / MIC MRSP 76923 / MR 71994 / Mr 88493 / MR 72035 / MR 72192 / MR 76923 / MR 79882 / MR 80279 / MR 81926 / MR 86002 / MR 87665: MIC in μM (visual, first well with no growth); MIC MRSP 87655: unit not given beside the values; conditions: for MIC MRSP 71994: strain 71994, Table 4; for MIC MRSP 72035: strain 72035, Table 4; for MIC MRSP 72192: strain 72192, Table 4; for MIC MRSP 76923: strain 76923, Table 4; for MIC MRSP 79882: strain 79882, Table 4; for MIC MRSP 80729: strain 80729, Table 4; for MIC MRSP 81926: strain 81926, Table 4; for MIC MRSP 86002: strain 86002, Table 4; for MIC MRSP 87655: strain 87655, Table 4; for MIC MRSP 88493: strain 88493, Table 4
Protocol: as §1, §2

[3] = tested on: Canine-derived epithelial keratinocyte (CPEK) cells; type: cell-based
Protocol: Safety of the peptides listed in table 2 was determining by measuring cell viability. Canine-derived epithelial keratinocyte (CPEK) cells were propagated to determine cell viability in the presence of peptides. Cells were grown from a frozen stock in CnT-09-5 (with supplements) pre-warmed media in a T75 flask and incubated overnight at 37° C., 5% CO2. Cells were washed with phosphate buffer and replenished with pre-warmed CnT-05-9 media and repeated for several days until cells reached a density of 6.6×10^4 cells/mL. Cells were then transferred to a 384 well plate, allowed to settle and dosed with peptides and melittin control peptide (50 μM to 0.05 μM) and incubated overnight at 37° C., 5% CO2. 0.1% TritonX100 as (HPE) and phosphate buffer alone as (ZPE) were added to the plates to calculate percent effect once the assay was terminated with 10 μL CELLTITER-GLO® assay reagents for a luminescent readout.

cRBC = type: cell-based, canine
Protocol: SEQ ID NO: 1 was selected for further research. Toxicity of SEQ ID NO: 1 to eukaryotic blood cells was compared to that of tachyplesin (SEQ ID NO: 13). A standard, well referenced red blood cell hemolysis assay was employed against multiple species to test the lysis potential of the peptides. Red blood cells (RBCs) were prepared and isolated by several centrifuge and wash steps to remove the plasma fraction. A dose titration (50 μM to 0.05 μM) of test peptides and control peptide melittin were spotted from 50 mM stocks in a 384 well plate. Prepared RBCs were incubated with peptide for one hour at 37° C. Percent hemolysis was measured by optical density at 405 nm and utilizing 1% TritonX100 as hundred percent effect (HPE) and phosphate buffer alone as zero percent effect (ZPE).

Row | Substance | MIC MSSP 49051 [1] | MIC MSSP 71990 [1] | MIC MSSP 72036 [1] | MIC MSSP 72191 [1] | MIC MSSP 76986 [1] | MIC MSSP 77378 [1] | MIC MSSP 78032 [1] | MIC MSSP 81923 [1] | MIC MSSP 84250 [1] | MIC MSSP 84658 [1] | MIC MSSP 86000 [1] | MIC MSSP 86001 [1] | MIC MRSP 71994 [2] | MIC MRSP 72035 [2] | MIC MRSP 72192 [2] | MIC MRSP 76923 [2] | MIC MRSP 79882 [2] | MIC MRSP 80729 [2] | MIC MRSP 81926 [2] | MIC MRSP 86002 [2] | other results
1 | 1 (KWCFRVCYRGICYRRCRD; Antimicrobial peptide) [compound 1] | 1.6 | 1.6 | 1.6 | 1.6 | 1.6 | 1.6 | 1.6 | 1.6 | 1.6 | 1.6 | 1.6 | 1.6 | 1.6 | 1.6 | 1.6 | 1.6 | 1.6 | 1.6 | 1.6 | 1.6 | MIC MRSP 87655 [2]: 1.6; MIC MRSP 88493 [2]: 1.6; CPEK (50 μM) [3]: 21.5; cRBC (50 μM) (cRBC): 20.5
2 | 2 (RWCFRVCYRGICYRRCRD; Artificial antimicrobial peptide) [compound 2] | 1.6 | 1.6 | 1.6 | 1.6 | 1.6 | 1.6 | 1.6 | 3.1 | 1.6 | 3.1 | 1.6 | 1.6 | 1.6 | 1.6 | 1.6 | 1.6 | 0.8 | 1.6 | 1.6 | 1.6 | MIC MRSP 87655 [2]: 1.6; MIC MRSP 88493 [2]: 1.6; CPEK (50 μM) [3]: −1.7; cRBC (50 μM) (cRBC): 64.0
3 | 3 (GWCFRVCYRGICYRRCRD; Artificial Antimicrobial peptide) [compound 3] | 1.6 | 1.6 | 1.6 | 1.6 | 1.6 | 0.4 | 1.6 | 1.6 | 1.6 | 1.6 | 1.6 | 0.8 | 1.6 | 1.6 | 1.6 | 1.6 | 0.8 | 1.6 | 1.6 | 1.6 | MIC MRSP 87655 [2]: 1.6; MIC MRSP 88493 [2]: 1.6; CPEK (50 μM) [3]: 42.1; cRBC (50 μM) (cRBC): 67.1
4 | 4 (KFCFRVCYRGICYRRCRD; Artificial antimicrobial peptide) [compound 4] | 1.6 | 1.6 | 0.8 | 0.8 | 0.8 | 0.4 | 0.8 | 1.6 | 1.6 | 1.6 | 1.6 | 0.8 | 1.6 | 1.6 | 1.6 | 0.8 | 0.8 | 0.8 | 0.8 | 1.6 | MIC MRSP 87655 [2]: 1.6; MIC MRSP 88493 [2]: 1.6; CPEK (50 μM) [3]: 16.6; cRBC (50 μM) (cRBC): 67.1
5 | 5 (KWCFYVCYRGICYRRCRD; Artificial Antimicrobial peptide) [compound 5] | 1.6 | 1.6 | 1.6 | 1.6 | 1.6 | 0.8 | 1.6 | 1.6 | 1.6 | 1.6 | 1.6 | 1.6 | 1.6 | 1.6 | 1.6 | 1.6 | 1.6 | 1.6 | 1.6 | 1.6 | MIC MRSP 87655 [2]: 1.6; MIC MRSP 88493 [2]: 1.6; CPEK (50 μM) [3]: 28.6; cRBC (50 μM) (cRBC): 3.1
6 | 6 (KWCFRVCRRGICYRRCRD; Artificial Antimicrobial peptide) [compound 6] | 3.1 | 3.1 | 3.1 | 3.1 | 3.1 | 1.6 | 3.1 | 3.1 | 3.1 | 3.1 | 3.1 | 3.1 | 3.1 | 3.1 | 3.1 | 3.1 | 3.1 | 3.1 | 3.1 | 3.1 | MIC MRSP 87655 [2]: 3.1; MIC MRSP 88493 [2]: 3.1; CPEK (50 μM) [3]: 4.1; cRBC (50 μM) (cRBC): 1.1
7 | 7 (KWCFRVCYRGVCYRRCRD; Artificial Antimicrobial peptide) [compound 7] | 1.6 | 1.6 | 1.6 | 1.6 | 1.6 | 0.8 | 1.6 | 1.6 | 1.6 | 1.6 | 1.6 | 1.6 | 1.6 | 1.6 | 1.6 | 1.6 | 1.6 | 1.6 | 1.6 | 1.6 | MIC MRSP 87655 [2]: 1.6; MIC MRSP 88493 [2]: 1.6; CPEK (50 μM) [3]: 11.3; cRBC (50 μM) (cRBC): 84.1
